Tests used:
Experiment in all cases: viability relative to DMSO control (fraction); higher = less drug effect (more viable cells)
Settings in all cases: 48 h
Idasanutlin (RS7388) = compound: COc1cc(C(=O)O)ccc1NC(=O)[C@@H]1N[C@@H](CC(C)(C)C)[C@](C#N)(c2ccc(Cl)cc2F)[C@H]1c1cccc(Cl)c1F [Idasanutlin (RS7388)]
Method in brief: (§1)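 Cells were incubated for 48 h at 37 °C and 5% CO2 in RPMI-1640 with penicillin/streptomycin, L-glutamine and human serum, at 4 × 10^4 cells per well in 384-well plates with compounds pre-plated at five concentrations, one well each. These were primary mononuclear tumour cells, fresh or cryopreserved, Ficoll-isolated from blood or bone marrow or obtained from processed lymph node. Viability values are CellTiter-Glo luminescence relative to the median of 16 inner DMSO wells.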

Bendamustine = compound: Cn1c(CCCC(=O)O)nc2cc(N(CCCl)CCCl)ccc21 [Bendamustine]
Method in brief: as §1

Etoposide = compound: COc1cc([C@@H]2c3cc4c(cc3[C@@H](O[C@@H]3O[C@@H]5CO[C@@H](C)O[C@H]5[C@H](O)[C@H]3O)[C@H]3COC(=O)[C@H]23)OCO4)cc(OC)c1O [Etoposide]
Method in brief: as §1

Duvelisib = compound: C[C@H](Nc1ncnc2nc[nH]c12)c1cc2cccc(Cl)c2c(=O)n1-c1ccccc1 [Duvelisib]
Method in brief: as §1

Pomalidomide = compound: Nc1cccc2c1C(=O)N(C1CCC(=O)NC1=O)C2=O [Pomalidomide]
Method in brief: as §1

Entospletinib = compound: c1cn2cc(-c3ccc4cn[nH]c4c3)nc(Nc3ccc(N4CCOCC4)cc3)c2n1 [Entospletinib]
Method in brief: as §1

Chlorambucil = compound: O=C(O)CCCc1ccc(N(CCCl)CCCl)cc1 [Chlorambucil]
Method in brief: as §1

Everolimus = compound: CO[C@H]1C[C@@H]2CC[C@@H](C)[C@@](O)(O2)C(=O)C(=O)N2CCCC[C@H]2C(=O)O[C@H]([C@H](C)C[C@@H]2CC[C@@H](OCCO)[C@H](OC)C2)CC(=O)[C@H](C)/C=C(\C)[C@@H](O)[C@@H](OC)C(=O)[C@H](C)C[C@H](C)/C=C/C=C/C=C/1C [Everolimus]
Method in brief: as §1

Vindesine = compound: CC[C@]1(O)C[C@@H]2CN(CCc3c([nH]c4ccccc34)[C@@](C(=O)OC)(c3cc4c(cc3OC)N(C)[C@H]3[C@@](O)(C(N)=O)[C@H](O)[C@]5(CC)C=CCN6CC[C@]43[C@@H]65)C2)C1 [Vindesine]
Method in brief: as §1

SGC 0946 = compound: CC(C)N(CCCNC(=O)Nc1ccc(C(C)(C)C)cc1)C[C@H]1O[C@@H](n2cc(Br)c3c(N)ncnc32)[C@H](O)[C@@H]1O [SGC 0946]
Method in brief: as §1

Roscovitine = compound: CC[C@H](CO)Nc1nc(NCc2ccccc2)c2ncn(C(C)C)c2n1 [Roscovitine]
Method in brief: as §1

Midostaurin hydrate = compound: CO[C@@H]1[C@H](N(C)C(=O)c2ccccc2)C[C@H]2O[C@]1(C)n1c3ccccc3c3c4c(c5c6ccccc6n2c5c31)C(=O)NC4 [Midostaurin hydrate]
Method in brief: as §1

[1] = compound: O=C(Nc1ccc2[nH]nc(-c3ccncc3)c2c1)[C@@H]1CCN(CC(=O)N2CCN(c3ccc(-c4ncccn4)cc3)CC2)C1
Method in brief: as §1

Tofacitinib = compound: C[C@@H]1CCN(C(=O)CC#N)C[C@@H]1N(C)c1ncnc2[nH]ccc12 [Tofacitinib]
Method in brief: as §1

primary AML patient cells (S006)
viability (Idasanutlin (RS7388); 0.032 µM): 0.488
viability (Idasanutlin (RS7388); 0.16 µM): 0.25
viability (Idasanutlin (RS7388); 0.8 µM): 0.0758
viability (Idasanutlin (RS7388); 4 µM): 0.0429
viability (Idasanutlin (RS7388); 20 µM): 0.0408
viability (Bendamustine; 0.032 µM): 0.999
viability (Bendamustine; 0.16 µM): 1.04
viability (Bendamustine; 0.8 µM): 1.04
viability (Bendamustine; 4 µM): 0.987
viability (Bendamustine; 20 µM): 0.616
viability (Etoposide; 0.032 µM): 1.06
viability (Etoposide; 0.16 µM): 0.966
viability (Etoposide; 0.8 µM): 0.893
viability (Etoposide; 4 µM): 0.67
viability (Etoposide; 20 µM): 0.213
viability (Duvelisib; 0.0016 µM): 0.947
viability (Duvelisib; 0.008 µM): 0.902
viability (Duvelisib; 0.04 µM): 0.864
viability (Duvelisib; 0.2 µM): 0.817
viability (Duvelisib; 1 µM): 0.726
viability (Pomalidomide; 0.0032 µM): 0.812
viability (Pomalidomide; 0.016 µM): 0.817
viability (Pomalidomide; 0.08 µM): 0.786
viability (Pomalidomide; 0.4 µM): 0.622
viability (Pomalidomide; 2 µM): 0.656
viability (Entospletinib; 0.024 µM): 1.08
viability (Entospletinib; 0.12 µM): 0.973
viability (Entospletinib; 0.6 µM): 0.886
viability (Entospletinib; 3 µM): 0.945
viability (Entospletinib; 15 µM): 0.925
viability (Chlorambucil; 0.032 µM): 1.03
viability (Chlorambucil; 0.16 µM): 0.922
viability (Chlorambucil; 0.8 µM): 0.945
viability (Chlorambucil; 4 µM): 0.522
viability (Chlorambucil; 20 µM): 0.154
viability (Everolimus; 0.0032 µM): 0.865
viability (Everolimus; 0.016 µM): 0.853
viability (Everolimus; 0.08 µM): 0.82
viability (Everolimus; 0.4 µM): 0.758
viability (Everolimus; 2 µM): 0.684
viability (Vindesine; 0.016 µM): 0.778
viability (Vindesine; 0.08 µM): 0.395
viability (Vindesine; 0.4 µM): 0.244
viability (Vindesine; 2 µM): 0.207
viability (Vindesine; 10 µM): 0.194
viability (SGC 0946; 0.024 µM): 0.991
viability (SGC 0946; 0.12 µM): 0.944
viability (SGC 0946; 0.6 µM): 0.899
viability (SGC 0946; 3 µM): 0.836
viability (SGC 0946; 15 µM): 0.557
viability (Roscovitine; 0.032 µM): 1.08
viability (Roscovitine; 0.16 µM): 1.07
viability (Roscovitine; 0.8 µM): 1.03
viability (Roscovitine; 4 µM): 1.04
viability (Roscovitine; 20 µM): 0.576
viability (Midostaurin hydrate; 0.024 µM): 0.669
viability (Midostaurin hydrate; 0.12 µM): 0.585
viability (Midostaurin hydrate; 0.6 µM): 0.529
viability (Midostaurin hydrate; 3 µM): 0.638
viability (Midostaurin hydrate; 15 µM): 0.709
viability ([1]; 0.008 µM): 0.989
viability ([1]; 0.04 µM): 0.932
viability ([1]; 0.2 µM): 0.856
viability ([1]; 1 µM): 0.753
viability ([1]; 5 µM): 0.548
viability (Tofacitinib; 0.024 µM): 0.969
viability (Tofacitinib; 0.12 µM): 0.904
viability (Tofacitinib; 0.6 µM): 0.937
viability (Tofacitinib; 3 µM): 0.842
viability (Tofacitinib; 15 µM): 0.578

primary T-NHL patient cells (S058)
viability (Bendamustine; 0.032 µM): 0.971
viability (Bendamustine; 0.16 µM): 1.01
viability (Bendamustine; 0.8 µM): 0.925
viability (Bendamustine; 4 µM): 0.868
viability (Bendamustine; 20 µM): 0.564
viability (Etoposide; 0.032 µM): 0.838
viability (Etoposide; 0.16 µM): 1.16
viability (Etoposide; 0.8 µM): 0.739
viability (Etoposide; 4 µM): 0.654
viability (Etoposide; 20 µM): 0.268
viability (Duvelisib; 0.0016 µM): 1.1
viability (Duvelisib; 0.008 µM): 1.04
viability (Duvelisib; 0.04 µM): 0.923
viability (Duvelisib; 0.2 µM): 1.03
viability (Duvelisib; 1 µM): 0.91
viability (Pomalidomide; 0.0032 µM): 0.937
viability (Pomalidomide; 0.016 µM): 1.16
viability (Pomalidomide; 0.08 µM): 1.27
viability (Pomalidomide; 0.4 µM): 0.858
viability (Pomalidomide; 2 µM): 1.2
viability (Entospletinib; 0.024 µM): 1.03
viability (Entospletinib; 0.12 µM): 1.09
viability (Entospletinib; 0.6 µM): 0.875
viability (Entospletinib; 3 µM): 1.04
viability (Entospletinib; 15 µM): 1.06
viability (Chlorambucil; 0.032 µM): 1.02
viability (Chlorambucil; 0.16 µM): 0.938
viability (Chlorambucil; 0.8 µM): 0.932
viability (Chlorambucil; 4 µM): 0.81
viability (Chlorambucil; 20 µM): 0.262
viability (Everolimus; 0.0032 µM): 0.922
viability (Everolimus; 0.016 µM): 1.07
viability (Everolimus; 0.08 µM): 0.954
viability (Everolimus; 0.4 µM): 1.03
viability (Everolimus; 2 µM): 0.944
viability (SGC 0946; 0.024 µM): 1.19
viability (SGC 0946; 0.12 µM): 1.12
viability (SGC 0946; 0.6 µM): 0.867
viability (SGC 0946; 3 µM): 1.01
viability (SGC 0946; 15 µM): 0.486
viability ([1]; 0.008 µM): 1.04
viability ([1]; 0.04 µM): 1.1
viability ([1]; 0.2 µM): 1.01
viability ([1]; 1 µM): 0.989
viability ([1]; 5 µM): 0.908
viability (Tofacitinib; 0.024 µM): 0.865
viability (Tofacitinib; 0.12 µM): 0.895
viability (Tofacitinib; 0.6 µM): 0.94
viability (Tofacitinib; 3 µM): 0.935
viability (Tofacitinib; 15 µM): 0.937
